Patent publication US9845327B2, “Treatment of proteinopathies” (THE GENERAL HOSPITAL CORPORATION, priority 2011, dated 2017)

Key:
LC3-II = LC3-II western blot in primary cortical neurons; type: cell-based, mouse; conditions: leupeptin compared with GCase polypeptide KD
Procedure: (§1) As discussed above, the increased α-synuclein levels and toxicity that occur with GCase polypeptide depletion may result from generalized lysosomal inhibition or may be due to alterations in GlcCer lipid metabolism. To distinguish between these two possibilities, in this Example, the lysosomal protein degradation was inhibited with leupeptin in WT α-synuclein-expressing neurons and the neurotoxicity was assessed. […] Thus, despite similar effects on the total α-synuclein levels by leupeptin or GCase polypeptide KD, only GCase polypeptide KD increased the steady-state levels of soluble HMW α-synuclein. In this Example, sequential extraction followed by SDS-PAGE/Coomassie brilliant blue (CBB) staining was used to determine the effect of leupeptin treatment on the solubility of total cellular proteins.
Most materials for SDS-PAGE were obtained from Invitrogen (NuPAGE system). […] Blots were blocked in Odyssey blocking buffer (Li-Cor biosciences) containing 0.05% Tween, or 5% non-fat dry milk in TBS-T 0.2%, followed by incubation with primary antibodies (see above for dilutions), and detected with anti-mouse or -rabbit IgG conjugated to IRDye 680 or 800 (1:10,000, Li-Cor biosciences). […] Any nonspecific bands detected were not included in densitometric analyses. […]

[1] = tested on: α-synuclein/LAMP1 colocalized puncta; test: Immunostaining of α-synuclein and LAMP1, condensed nuclei count in primary neurons; type: cell-based
Procedure: Next in this Example, the effect of GlcCer on α-synuclein fibril formation was assessed under acidic conditions (pH 5.0, 37° C.), to simulate a lysosome-like environment in vitro because the neuronal culture data had indicated increased colocalization of α-synuclein with LAMP1 upon GCase polypeptide KD (FIGS. 5H and 5I). […] An increased frequency of condensed nuclei in WT α-synuclein/GC-depleted cells, compared to WT α-synuclein/scrb shRNA cells (panel H), was consistent with a decline in neuronal viability. […] The α-synuclein detected in P2 was in the form of a T-sol 18 kDa monomer (panel I, left), as well as T-insoluble monomer and multimers (panel I, right).
(§2) Cortical cells grown on poly-D-lysine coated coverslips in 12 well clusters were washed very briefly in warm PBS followed by rapid fixation in PBS-buffered 4% paraformaldehyde (w/v) for 15 min. […] Coverslips were mounted onto glass slides with 10 μl of 4,6-diamidino-2-phenylindole dihydrochloride (DAPI)-containing Fluoromount G (Southern Biotech, #0100-20) and visualized with a fluorescence microscope. For quantification of α-synuclein and LC3 immunostaining, pixels from equal-time exposed images were quantified using Adobe Photoshop software CS2 (Adobe Systems), and normalized to DAPI.

total cellular proteins = test: Total cellular protein solubility by sequential extraction, SDS-PAGE and Coomassie brilliant blue staining; type: cell-based, mouse; conditions: leupeptin treatment
Procedure: as §1
(§3) Cells were harvested in Triton X-100 lysis buffer. The extracts were centrifuged at 100,000×g for 30 min. The pellets were extracted in 2% SDS buffer. Similar procedures were utilized for mouse and human brain tissues, using 20 volumes of Triton X-100 lysis buffer. Samples were loaded onto SDS-PAGE gels or subjected to native SEC followed by western blot analysis as described below (Mazzulli et al., J. Neurosci. 26:10068, 2006).

α-synuclein [2] = test: α-synuclein solubility and oligomers (sequential extraction/western blot, native SEC, immunostaining) in primary cortical neurons; type: cell-based
Procedure: as §1, §3
Infected cortical cells (8,000,000 cells/10 cm plate) were harvested in Triton X-100 lysis buffer and 100,000×g Triton X-100 soluble lysate was loaded onto a Superdex 200 HR 10/300 column (GE healthcare) as described previously (Mazzulli et al., J. Neurosci. 26:10068, 2006). Quantification of α-synuclein oligomers has been described in detail previously (Tsika et al., J. Neurosci. 30: 3409, 2010).
as §2, with “min. Cells were incubated with PBS containing 0.3% (v/v) Triton X-100 overnight at 4° C., then blocked in 2% (w/v) bovine serum albumin (BSA) (Sigma-Aldrich, # A-7906) and 10% normal goat serum (Jackson Immunoresearch Laboratories, #005-000-121) in PBS-Triton X-100 for 1 hr. Primary antibodies were diluted into blocking buffer (see above for dilutions), incubated overnight at 4° C., and washed extensively in PBS-Triton X-100.” for “min.”

primary cortical neurons [3] = test: Proteolysis of long-lived proteins by radioactive pulse-chase in primary cortical neurons; type: cell-based, mouse; conditions: added to GCase polypeptide KD
Procedure: In this Example, a test was conducted to determine whether GCase polypeptide KD affects a lysosomal degradation pathway. In this test, neurons were treated with the well-established lysosomal inhibitors ammonium chloride (NH4Cl) and leupeptin.
Proteolysis of long-lived proteins was determined by radioactive pulse-chase using ^3H-leucine. This procedure was performed as described previously (Kaushik et al. Methods Enzymol. 452: 297, 2009). Briefly, cortical cells were grown in 24 well clusters seeded at 33000 cells/well and infected at moi 3 with scrb or GCase polypeptide shRNA expressing lentiviral vectors. On dpi 4, ^3H-leucine (PerkinElmer, # NET460A001 MC, final 5 μCi/ml) was added in standard neurobasal medium containing B27 for 2 days to trace label proteins. […] Samples were centrifuged at 20,000×g for 20 min, 4° C., and the radioactivity was measured in 5 ml of scintillation cocktail using a Beckman LS 1701 liquid scintillation counter (Beckman Instruments). Precipitated protein pellets were extracted in 200 μl of Na deoxycholate, 0.1 M NaOH, and radioactivity was determined. Percent proteolysis was calculated as described in detail elsewhere (Kaushik et al. Methods Enzymol. 452: 297, 2009). […]

Hela cells = test: Lysosomal proteolysis by radioactive pulse-chase in transfected Hela cells; type: cell-based
Procedure: (§4) Further in this Example, it was assessed whether GCase polypeptide overexpression had the ability to directly enhance lysosomal proteolysis in a non-neuronal cell line. Hela cells were transfected with a myc-tagged GCase polypeptide expression construct and lysosomal proteolysis was assessed by radioactive pulse-chase (FIG. 17A). […] This effect was also confirmed through a different assay, by measuring the effect of GCase polypeptide overexpression on the activity of the lysosomal protease cathepsin B. A cell-permeable fluorescent-tagged cathepsin B substrate (MAGIC RED cathepsin detection kit, Immunochemistry Technologies) was added to transfected Hela cells, and degradation of this substrate was determined in living cells after substrate wash-out.

primary cortical neurons [4] = test: Neurotoxicity assessment (neurofilament immunostaining, neuronal volume) in primary cortical neurons expressing human WT α-synuclein; type: cell-based
cathepsin B = test: Cathepsin B activity in living transfected Hela cells (fluorescent substrate); type: cell-based; conditions: overexpression in transfected Hela cells, versus GFP
Procedure: as §4
In this Example, it was investigated whether enhancement of lysosomal enzyme trafficking through stimulation of the secretory pathway would result in increased lysosomal function and reduction of α-synuclein. Therefore, in this Example the small GTPase Rab1a polypeptide was overexpressed by lentiviral infection in iPS neurons to stimulate enzyme trafficking. […] The effect of Rab1a polypeptide was determined in human iPS dopamine neurons derived from reprogrammed fibroblasts of a PD patient (Coriell line ND27760). […] Further in this Example, it was determined if Rab1a polypeptide enhances lysosomal function by monitoring cathepsin B activity.

α-synuclein [5] = test: α-synuclein levels by western blot in human midbrain iPS dopamine neurons; type: cell-based; conditions: lentiviral overexpression, moi 5, human PD dopamine neurons (Coriell line ND27760, SNCA triplication)
Description: In this Example, it was investigated whether enhancement of lysosomal enzyme trafficking through stimulation of the secretory pathway would result in increased lysosomal function and reduction of α-synuclein. Therefore, in this Example the small GTPase Rab1a polypeptide was overexpressed by lentiviral infection in iPS neurons to stimulate enzyme trafficking. Rab1a polypeptide has been established to function specifically at the ER-Golgi step of the secretory pathway (Duvernay et al., Cell Signal 17: 1457, 2005). The effect of Rab1a polypeptide was determined in human iPS dopamine neurons derived from reprogrammed fibroblasts of a PD patient (Coriell line ND27760). These cells harbor a triplication mutation in the genomic region containing SNCA which encodes for α-synuclein, leading to overexpression of the protein and lysosomal trafficking deficits. […] Further in this Example, it was determined if Rab1a polypeptide enhances lysosomal function by monitoring cathepsin B activity.
It was also shown in this Example that treatment with the GCase polypeptide activator increased the levels of total GCase protein and increased the post-ER forms, indicating enhancement of flux to the lysosome (FIG. 19B).
Most materials for SDS-PAGE were obtained from Invitrogen (NuPAGE system). Protein lysates were boiled in sample buffer (20 mM Tris, 1% (v/v) glycerol, 180 mM β-mercaptoethanol, 0.003% (w/v) bromophenol blue, 2% (w/v) SDS, pH 6.8), resolved on 4%-12% Bis-Tris polyacrylamide precast gels in a MOPS-SDS running buffer, or 4%-12% Tris-Glycine gels. 10% Tris-Glycine gels were utilized for some GCase polypeptide western blot's (FIGS. 13B, 13D, and 13E, and FIGS. 14C and 14F). […] Blots were blocked in Odyssey blocking buffer (Li-Cor biosciences) containing 0.05% Tween, or 5% non-fat dry milk in TBS-T 0.2%, followed by incubation with primary antibodies (see above for dilutions), and detected with anti-mouse or -rabbit IgG conjugated to IRDye 680 or 800 (1:10,000, Li-Cor biosciences). […] Any nonspecific bands detected were not included in densitometric analyses. […]

[6] = leupeptin-treated WT α-synuclein-expressing neurons

CC(=O)N[C@@H](CC(C)C)C(=O)N[C@@H](CC(C)C)C(=O)N[C@H](C=O)CCCNC(=N)N [leupeptin]
levels of LC3-II (LC3-II): comparable increase | percentage of cells with condensed nuclei compared to untreated control cells ([1]; 7 dpi): did not alter | percentage of cells containing α-synuclein/LAMP1 colocalized puncta ([1]; leupeptin-treated cells): ~90% | levels of total insoluble proteins, fold increase (total cellular proteins): ~2 fold | T-insoluble α-synuclein (α-synuclein [2]; [6]): increase | amount of soluble α-synuclein (α-synuclein [2]; [6]): no change | total α-synuclein immunostaining intensity (α-synuclein [2]; leupeptin-treated compared to control cells): increase | soluble HMW α-synuclein by SEC (α-synuclein [2]; leupeptin-treated neurons): not detectable | proteolysis of long-lived proteins in GCase polypeptide shRNA-treated cells (primary cortical neurons [3]): did not additively inhibit | effect of lysosomal inhibitors on the proteolysis increase by GCase polypeptide overexpression (Hela cells): completely reversed | neurotoxicity at later time points (primary cortical neurons [4]; >12 dpi): did result in neurotoxicity | α-synuclein-mediated neurotoxicity (primary cortical neurons [4]; WT α-synuclein-expressing neurons, 50 μM leupeptin, 7 dpi): did not enhance

Rab1a polypeptide: small GTPase overexpressed by lentiviral infection or transfection; SEQ ID NO. 13
cathepsin B activity (cathepsin B): increase | α-synuclein levels (α-synuclein [5]): dramatic reduction

B1: GCase polypeptide: myc-tagged GCase polypeptide expression construct transfected into Hela cells (protein, UniProt P04062 40-536, looked up)
Lysosomal acid …: ARPCIPKSFGYSSVVCVCNATYCDSFDPPTFPALGTFSRYESTRSGRRMELSMGPIQANHTGTGLLLTLQPEQKFQKVKGFGGAMTDAAALNILALSPPAQNLLLKSYFSEEGIGYNIIRVPMASCDFSIRTYTYADTPDDFQLHNFSLPEEDTKLKIPLIHRALQLAQRPVSLLASPWTSPTWLKTNGAVNGKGSLKGQPGDIYHQTWARYFVKFLDAYAEHKLQFWAVTAENEPSAGLLSGYPFQCLGFTPEHQRDFIARDLGPTLANSTHHNVRLLMLDDQRLLLPHWAKVVLTDPEAAKYVHGIAVHWYLDFLAPAKATLGETHRLFPNTMLFASEACVGSKFWEQSVRLGSWDRGMQYSHSIITNLLYHVVGWTDWNLALNPEGGPNWVRNFVDSPIIVDITKDTFYKQPMFYHLGHFSKFIPEGSQRVGLVASQKNDLDAVALMHPDGSAVVVVLNRSSKDVPLTIKDPAVGFLETISPGYSIHTYLWRRQ
modifications: myc tag
notes: myc-tagged GCase polypeptide expression construct transfected into Hela cells
cathepsin B activity (cathepsin B): increased | increase in proteolysis compared to GFP control transfected cells (Hela cells; myc-tagged GCase polypeptide expression construct): 40%
